Assay results from ChEMBL document CHEMBL3580565, “Synthesis and Biological Evaluation of Cyclopentaquinoline Derivatives as Nonsteroidal Glucocorticoid Receptor Antagonists” (J Med Chem, 2015).

Experiments:
Progesterone receptor = target: T1, Progesterone receptor (Homo sapiens, UniProt P06401); test: Displacement of [3H]-progesterone from cytosolic fraction of human recombinant progesterone-B receptor by scintillation counting analysis
T1 sequence (P06401 whole entry): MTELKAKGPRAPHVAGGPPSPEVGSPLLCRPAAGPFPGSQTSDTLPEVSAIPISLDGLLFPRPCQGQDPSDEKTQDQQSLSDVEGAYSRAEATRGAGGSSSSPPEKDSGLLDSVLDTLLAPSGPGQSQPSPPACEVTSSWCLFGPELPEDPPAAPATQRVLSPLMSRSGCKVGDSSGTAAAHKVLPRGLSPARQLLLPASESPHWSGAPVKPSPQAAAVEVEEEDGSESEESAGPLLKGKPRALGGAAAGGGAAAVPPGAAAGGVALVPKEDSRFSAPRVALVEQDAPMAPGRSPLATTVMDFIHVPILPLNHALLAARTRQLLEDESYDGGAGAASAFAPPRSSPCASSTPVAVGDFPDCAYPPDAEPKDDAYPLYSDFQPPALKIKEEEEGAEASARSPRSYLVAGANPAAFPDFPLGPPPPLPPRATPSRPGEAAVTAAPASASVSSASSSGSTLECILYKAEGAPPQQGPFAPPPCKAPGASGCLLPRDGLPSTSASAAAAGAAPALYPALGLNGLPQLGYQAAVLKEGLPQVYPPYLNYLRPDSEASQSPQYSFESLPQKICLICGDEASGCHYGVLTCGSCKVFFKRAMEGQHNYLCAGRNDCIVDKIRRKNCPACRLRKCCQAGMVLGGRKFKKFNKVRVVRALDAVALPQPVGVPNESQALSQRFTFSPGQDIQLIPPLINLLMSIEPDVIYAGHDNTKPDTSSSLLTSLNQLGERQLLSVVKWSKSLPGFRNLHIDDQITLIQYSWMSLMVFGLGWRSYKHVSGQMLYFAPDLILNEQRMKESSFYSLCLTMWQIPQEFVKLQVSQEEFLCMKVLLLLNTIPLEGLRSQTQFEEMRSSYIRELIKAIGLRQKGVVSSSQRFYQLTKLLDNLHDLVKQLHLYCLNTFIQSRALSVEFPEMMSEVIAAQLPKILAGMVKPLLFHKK

[1] = target: T2, Mineralocorticoid receptor (Homo sapiens, UniProt P08235); test: Displacement of [3H]-aldosterone from cytosolic fraction of human recombinant mineralocorticoid receptor by scintillation counting analysis
T2 sequence (P08235 whole entry): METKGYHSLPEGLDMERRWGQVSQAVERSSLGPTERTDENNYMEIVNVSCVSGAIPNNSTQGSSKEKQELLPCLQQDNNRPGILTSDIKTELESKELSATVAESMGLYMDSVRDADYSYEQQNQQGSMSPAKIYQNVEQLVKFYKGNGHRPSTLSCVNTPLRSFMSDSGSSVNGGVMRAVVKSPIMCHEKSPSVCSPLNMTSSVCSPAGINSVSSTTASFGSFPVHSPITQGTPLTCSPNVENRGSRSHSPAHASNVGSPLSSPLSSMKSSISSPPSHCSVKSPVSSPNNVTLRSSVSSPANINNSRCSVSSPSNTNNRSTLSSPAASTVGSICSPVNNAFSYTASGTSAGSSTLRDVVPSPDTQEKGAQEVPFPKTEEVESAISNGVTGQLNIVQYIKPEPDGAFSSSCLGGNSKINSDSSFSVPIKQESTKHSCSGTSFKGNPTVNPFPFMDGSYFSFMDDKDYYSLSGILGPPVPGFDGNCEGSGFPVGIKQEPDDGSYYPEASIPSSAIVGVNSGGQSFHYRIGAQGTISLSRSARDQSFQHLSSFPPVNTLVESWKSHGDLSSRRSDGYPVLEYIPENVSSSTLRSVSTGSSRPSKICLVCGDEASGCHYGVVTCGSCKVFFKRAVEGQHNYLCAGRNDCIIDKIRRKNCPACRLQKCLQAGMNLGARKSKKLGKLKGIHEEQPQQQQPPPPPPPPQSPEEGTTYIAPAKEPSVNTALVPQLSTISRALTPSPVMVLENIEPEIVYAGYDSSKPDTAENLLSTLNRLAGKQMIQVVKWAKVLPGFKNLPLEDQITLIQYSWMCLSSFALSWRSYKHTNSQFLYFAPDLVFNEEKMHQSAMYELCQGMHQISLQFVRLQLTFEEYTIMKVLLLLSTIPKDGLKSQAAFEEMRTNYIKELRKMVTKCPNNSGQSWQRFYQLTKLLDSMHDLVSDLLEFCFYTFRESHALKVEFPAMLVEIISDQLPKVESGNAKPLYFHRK

Glucocorticoid receptor [2] = target: T3, Glucocorticoid receptor (Homo sapiens, UniProt P04150); test: Antagonist activity at human glucocorticoid receptor transfected in CHOK1 cells assessed as inhibition of dexamethasone-induced receptor transcriptional activity after 6 hrs by luciferase reporter gene assay; assay type: cell-based, CHO-K1
T3 sequence (P04150 whole entry): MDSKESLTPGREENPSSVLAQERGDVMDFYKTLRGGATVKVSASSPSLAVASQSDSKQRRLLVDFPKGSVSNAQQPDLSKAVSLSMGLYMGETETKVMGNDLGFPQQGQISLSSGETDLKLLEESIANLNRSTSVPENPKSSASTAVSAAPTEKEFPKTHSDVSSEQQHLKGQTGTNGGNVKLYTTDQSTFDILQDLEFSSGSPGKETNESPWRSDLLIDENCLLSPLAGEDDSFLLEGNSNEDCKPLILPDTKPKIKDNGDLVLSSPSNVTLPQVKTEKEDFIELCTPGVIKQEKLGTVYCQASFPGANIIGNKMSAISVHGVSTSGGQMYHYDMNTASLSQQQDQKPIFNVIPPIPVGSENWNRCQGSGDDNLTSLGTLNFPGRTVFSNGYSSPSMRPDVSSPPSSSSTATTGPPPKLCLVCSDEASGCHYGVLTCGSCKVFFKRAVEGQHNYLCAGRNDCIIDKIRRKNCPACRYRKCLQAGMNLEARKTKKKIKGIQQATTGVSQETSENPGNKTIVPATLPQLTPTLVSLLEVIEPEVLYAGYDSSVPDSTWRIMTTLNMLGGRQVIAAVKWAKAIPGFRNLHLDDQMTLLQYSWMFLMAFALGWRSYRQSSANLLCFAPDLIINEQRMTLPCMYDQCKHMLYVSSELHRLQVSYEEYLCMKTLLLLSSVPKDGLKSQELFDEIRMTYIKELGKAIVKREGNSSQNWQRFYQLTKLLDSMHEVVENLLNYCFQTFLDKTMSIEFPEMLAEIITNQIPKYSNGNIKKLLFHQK

Glucocorticoid receptor [3] = target: T3, Glucocorticoid receptor; test: Displacement of [3H]-dexamethasone from cytosolic fraction of human recombinant glucocorticoid receptor by scintillation counting analysis
Rattus norvegicus [4] = test: Antidepressant-like activity in Wistar rat assessed as decrease in immobility time at 10 mg/kg, po administered at 1, 5, 23.5 hrs prior to testing measured for 5 mins by forced swimming test relative to vehicle-treated control; assay type: functional; parameters: scale not given: the % may be the effect or the level left
Rattus norvegicus [5] = test: Antidepressant-like activity in Wistar rat assessed as immobility time at 30 mg/kg, po administered at 1, 5, 23.5 hrs prior to testing measured for 5 mins by forced swimming test (reference value: 211.3 to 232.2 secs); assay type: functional
Rattus norvegicus [6] = test: Antidepressant-like activity in Wistar rat assessed as decrease in immobility time at 30 mg/kg, po administered at 1, 5, 23.5 hrs prior to testing measured for 5 mins by forced swimming test relative to vehicle-treated control; assay type: functional; parameters: scale not given: the % may be the effect or the level left
Rattus norvegicus [7] = test: Antidepressant-like activity in Wistar rat assessed as immobility time at 10 mg/kg, po administered at 1, 5, 23.5 hrs prior to testing measured for 5 mins by forced swimming test (reference value: 211.3 to 232.2 secs); assay type: functional

Compound	Ki (Progesterone receptor) [nM]	IC50 (Glucocorticoid receptor [2]) [nM]	Ki (Glucocorticoid receptor [3]) [nM]	further results
CC1(C)Nc2c(cc(-c3cncc4nccn34)c3c2CCC3)C(C)(C)C1=O	> 1250	93	46	Ki [1]: > 3.33 µM
Cc1cc(-c2cc3c(c4c2CCC4)NC(C)(C)C(=O)C3(C)C)n(C)n1	–	–	> 384	–
COc1cc2c(cc1-c1c(C)noc1C)C(C)(C)C(=O)C(C)(C)N2	–	–	146	–
Cc1cnn(C)c1-c1cc2c(c3c1CCC3)NC(C)(C)C(=O)C2(C)C	> 1250	128	28	–
CC#C[C@]1(O)CC[C@H]2[C@@H]3CCC4=CC(=O)CCC4=C3[C@@H](c3ccc(N(C)C)cc3)C[C@@]21C [MIFEPRISTONE]	–	–	–	Activity (Rattus norvegicus [4]): 88.5%; Time (Rattus norvegicus [5]): 169.3 s; Activity (Rattus norvegicus [6]): 80.1%; Time (Rattus norvegicus [7]): 187 s
Cc1noc(C)c1-c1cc2c(cc1Cl)NC(C)(C)C(=O)C2(C)C	403	< 30	151	Ki [1]: > 3 µM
Cc1noc(C)c1-c1cc2c(c3c1CCCC3)NC(C)(C)C(=O)C2(C)C	–	167	106	–
CC1(C)Nc2c(cc(-c3cccc4nncn34)c3c2CCC3)C(C)(C)C1=O	–	91	–	–
CC1(C)Nc2c(cc(-c3ccnc4ncccc34)c3c2CCC3)C(C)(C)C1=O	–	53	–	–
Cc1noc(C)c1-c1ccc2c(c1)C(C)(C)C(=O)C(C)(C)N2	22	37	16	Ki [1]: 0.337 µM
CC1(C)Nc2c(cc(-c3cccn4cnnc34)c3c2CCC3)C(C)(C)C1=O	–	–	> 384	–
Cc1ncn(C)c1-c1cc2c(c3c1CCC3)NC(C)(C)C(=O)C2(C)C	–	150	69	–
Cc1noc(C)c1-c1cc2c(c3c1OCO3)NC(C)(C)C(=O)C2(C)C	2270	77	–	Ki [1]: > 3 µM
CC1(C)Nc2c(cc(-c3cccc4nccn34)c3c2CCC3)C(C)(C)C1=O	–	21	–	–
CC1(C)Nc2c(cc(-c3cccn4nccc34)c3c2CCC3)C(C)(C)C1=O	1190	84	35	–
CC1(C)Nc2c(cc(-c3ccnc4ccccc34)c3c2CCC3)C(C)(C)C1=O	–	–	151	–
Cc1cn(C)c(-c2cc3c(c4c2CCC4)NC(C)(C)C(=O)C3(C)C)n1	–	–	> 384	–
